One series has as its target T1, PKAC-ALPHA (Homo sapiens, UniProt P17612).
T1 construct: made in house; host or cells: T7 phage in E. coli (BL21-derived) or HEK-293
Put plainly: Kinome screen, PKAC-ALPHA. It counts as binding. To be noted: screened at 1 μM. Here is the method:
(§1) Kinase-tagged T7 phage strains were grown in parallel in 24-well blocks in an E. coli host derived from the BL21 strain. E. coli were grown to log-phase and infected with T7 phage from a frozen stock (multiplicity of infection=0.4) and incubated with shaking at 32° C. until lysis (90-150 minutes). The lysates were centrifuged (6,000×g) and filtered (0.2 μm) to remove cell debris. The remaining kinases were produced in HEK-293 cells and subsequently tagged with DNA for qPCR detection.
(§2) Streptavidin-coated magnetic beads were treated with biotinylated small molecule ligands for 30 minutes at room temperature to generate affinity resins for kinase assays. The liganded beads were blocked with excess biotin and washed with blocking buffer (SeaBlock (Pierce), 1% BSA, 0.05% Tween 20, 1 mM DTT) to remove unbound ligand and to reduce non-specific phage binding. […] Test compounds were prepared as 40× stocks in 100% DMSO and directly diluted into the assay. All reactions were performed in polypropylene 384-well plates in a final volume of 0.04 ml. […] The beads were then re-suspended in elution buffer (1×PBS, 0.05% Tween 20, 0.5 μM non-biotinylated affinity ligand) and incubated at room temperature with shaking for 30 minutes. The kinase concentration in the eluates was measured by qPCR.

In another series the target is T2, AURKA (Homo sapiens, UniProt O14965).
T2 construct: made in house; host or cells: T7 phage in E. coli (BL21-derived) or HEK-293
T2 sequence (O14965 whole entry): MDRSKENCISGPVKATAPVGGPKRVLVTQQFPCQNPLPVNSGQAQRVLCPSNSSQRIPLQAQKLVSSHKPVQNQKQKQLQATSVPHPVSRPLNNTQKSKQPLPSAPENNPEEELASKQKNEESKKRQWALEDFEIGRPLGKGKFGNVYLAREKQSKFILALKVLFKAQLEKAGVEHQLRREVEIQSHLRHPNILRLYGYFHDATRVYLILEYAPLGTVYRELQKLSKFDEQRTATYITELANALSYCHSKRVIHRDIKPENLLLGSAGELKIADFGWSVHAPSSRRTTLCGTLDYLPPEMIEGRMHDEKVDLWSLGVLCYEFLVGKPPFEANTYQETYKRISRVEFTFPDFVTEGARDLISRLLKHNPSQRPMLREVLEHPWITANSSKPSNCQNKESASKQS
Briefly: Kinome screen, AURKA. To be noted: screened at 1 μM. It counts as binding. As for the experimental part: as §1, §2

The next series deals with T3, GSK3B (Homo sapiens, UniProt P49841).
T3 construct: made in house; host or cells: T7 phage in E. coli (BL21-derived) or HEK-293
T3 sequence (P49841 whole entry): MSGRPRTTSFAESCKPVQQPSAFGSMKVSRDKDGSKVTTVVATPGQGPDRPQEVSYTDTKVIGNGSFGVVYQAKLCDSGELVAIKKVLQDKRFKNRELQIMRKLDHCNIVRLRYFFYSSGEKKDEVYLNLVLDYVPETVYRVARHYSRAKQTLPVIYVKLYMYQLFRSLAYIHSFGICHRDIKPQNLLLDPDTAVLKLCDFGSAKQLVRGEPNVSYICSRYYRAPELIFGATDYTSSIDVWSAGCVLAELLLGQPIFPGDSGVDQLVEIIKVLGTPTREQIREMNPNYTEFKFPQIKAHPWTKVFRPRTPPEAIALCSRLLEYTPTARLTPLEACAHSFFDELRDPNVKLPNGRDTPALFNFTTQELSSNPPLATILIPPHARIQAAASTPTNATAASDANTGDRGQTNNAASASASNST
Put plainly: Kinome screen, GSK3B. The series is classed as binding. Particulars: screened at 1 μM. Here is the method: as §1, §2

A further series concerns the target T4, ALK (Homo sapiens, UniProt Q9UM73).
T4 construct: made in house; host or cells: T7 phage in E. coli (BL21-derived) or HEK-293
Put plainly: Kinome screen, ALK. The series is classed as binding. To be noted: screened at 1 μM. As for the experimental part: as §1, §2

The next series addresses T5, PLK4 (Homo sapiens, UniProt O00444).
T5 construct: made in house; host or cells: T7 phage in E. coli (BL21-derived) or HEK-293
Put plainly: Kinome screen, PLK4. It counts as binding. To be noted: screened at 1 μM. As for the experimental part:
as §1, §2

For the next series, the target named is T6, SLK (Homo sapiens, UniProt Q9H2G2).
T6 construct: made in house; host or cells: T7 phage in E. coli (BL21-derived) or HEK-293
T6 sequence (Q9H2G2 whole entry): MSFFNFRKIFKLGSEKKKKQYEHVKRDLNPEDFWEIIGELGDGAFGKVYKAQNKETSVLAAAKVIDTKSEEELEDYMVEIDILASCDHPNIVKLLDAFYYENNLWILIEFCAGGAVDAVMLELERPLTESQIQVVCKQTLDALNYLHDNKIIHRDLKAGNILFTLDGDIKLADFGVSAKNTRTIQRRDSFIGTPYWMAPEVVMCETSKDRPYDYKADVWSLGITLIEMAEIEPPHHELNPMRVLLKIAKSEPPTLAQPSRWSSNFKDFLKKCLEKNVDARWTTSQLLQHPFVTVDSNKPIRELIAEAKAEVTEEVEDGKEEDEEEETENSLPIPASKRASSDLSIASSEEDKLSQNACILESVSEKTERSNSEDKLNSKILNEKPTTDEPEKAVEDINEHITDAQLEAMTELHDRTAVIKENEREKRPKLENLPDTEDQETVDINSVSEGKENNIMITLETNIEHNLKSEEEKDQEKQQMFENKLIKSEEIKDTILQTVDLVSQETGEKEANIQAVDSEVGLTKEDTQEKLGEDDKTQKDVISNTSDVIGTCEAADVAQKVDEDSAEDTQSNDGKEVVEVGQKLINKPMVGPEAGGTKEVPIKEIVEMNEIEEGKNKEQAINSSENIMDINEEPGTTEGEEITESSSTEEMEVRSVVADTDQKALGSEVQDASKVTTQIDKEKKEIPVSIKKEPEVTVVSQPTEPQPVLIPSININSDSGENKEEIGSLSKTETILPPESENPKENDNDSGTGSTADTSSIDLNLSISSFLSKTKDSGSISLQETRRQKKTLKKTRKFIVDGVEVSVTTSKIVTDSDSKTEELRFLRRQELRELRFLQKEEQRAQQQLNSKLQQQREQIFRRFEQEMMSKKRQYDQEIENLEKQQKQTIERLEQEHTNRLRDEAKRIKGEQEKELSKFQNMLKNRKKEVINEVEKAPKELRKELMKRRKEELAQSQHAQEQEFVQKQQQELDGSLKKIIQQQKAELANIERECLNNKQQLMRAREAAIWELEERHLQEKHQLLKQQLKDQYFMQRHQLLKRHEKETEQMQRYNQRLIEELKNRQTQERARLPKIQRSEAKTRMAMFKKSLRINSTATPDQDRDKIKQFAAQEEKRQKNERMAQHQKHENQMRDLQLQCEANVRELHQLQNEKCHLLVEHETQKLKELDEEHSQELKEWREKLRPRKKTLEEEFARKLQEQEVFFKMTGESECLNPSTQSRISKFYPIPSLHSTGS
Put plainly: Kinome screen, SLK. The series is classed as binding. To be noted: screened at 1 μM. Here is the method:
as §1, §2

The next series relates to 35 different kinases. Put plainly: Kinome screen: GINI coefficient. It counts as binding. Particulars: panel of 35 different kinases; higher number = more selective. As for the experimental part:
as §1
as §2, with “The” for “The beads were then re-suspended in elution buffer (1×PBS, 0.05% Tween 20, 0.5 μM non-biotinylated affinity ligand) and incubated at room temperature with shaking for 30 minutes. The”
Both compounds 1 and C-1 were screened against 35 different kinases. The Gini coefficient was determined for both compounds. […]

A further series concerns the target T7, PAK4 (Homo sapiens, UniProt O96013).
T7 construct: made in house; host or cells: T7 phage in E. coli (BL21-derived) or HEK-293
Briefly: Kinome screen, PAK4. Particulars: screened at 1 μM. The series is classed as binding. As for the experimental part:
as §1, §2

In the next series the target is T8, SYK (Homo sapiens, UniProt P43405).
T8 construct: made in house; host or cells: T7 phage in E. coli (BL21-derived) or HEK-293
Briefly: Kinome screen, SYK. It counts as binding. To be noted: screened at 1 μM. As for the experimental part:
as §1, §2

The target of the next series is T9, EPHB6 (Homo sapiens, UniProt O15197).
T9 construct: made in house; host or cells: T7 phage in E. coli (BL21-derived) or HEK-293
Briefly: Kinome screen, EPHB6. The series is classed as binding. Particulars: screened at 1 μM. Here is the method: as §1, §2

The target of the next series is T10, CDK7 (Homo sapiens, UniProt P50613).
T10 construct: made in house; host or cells: T7 phage in E. coli (BL21-derived) or HEK-293
T10 sequence (P50613 whole entry): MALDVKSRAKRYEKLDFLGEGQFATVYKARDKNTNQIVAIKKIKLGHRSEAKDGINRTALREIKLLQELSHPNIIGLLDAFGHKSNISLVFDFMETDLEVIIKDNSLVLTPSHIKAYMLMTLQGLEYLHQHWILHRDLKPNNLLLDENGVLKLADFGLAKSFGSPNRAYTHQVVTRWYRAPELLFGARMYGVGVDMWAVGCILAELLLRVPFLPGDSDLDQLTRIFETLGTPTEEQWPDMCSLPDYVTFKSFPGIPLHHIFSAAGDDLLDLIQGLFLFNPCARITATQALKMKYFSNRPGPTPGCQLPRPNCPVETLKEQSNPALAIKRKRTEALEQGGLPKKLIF
Put plainly: Kinome screen, CDK7. It counts as binding. Particulars: screened at 1 μM. As for the experimental part:
as §1, §2

The target in another series is T11, KIT (Homo sapiens, UniProt P10721).
T11 construct: made in house; host or cells: T7 phage in E. coli (BL21-derived) or HEK-293
T11 sequence (P10721 26-976): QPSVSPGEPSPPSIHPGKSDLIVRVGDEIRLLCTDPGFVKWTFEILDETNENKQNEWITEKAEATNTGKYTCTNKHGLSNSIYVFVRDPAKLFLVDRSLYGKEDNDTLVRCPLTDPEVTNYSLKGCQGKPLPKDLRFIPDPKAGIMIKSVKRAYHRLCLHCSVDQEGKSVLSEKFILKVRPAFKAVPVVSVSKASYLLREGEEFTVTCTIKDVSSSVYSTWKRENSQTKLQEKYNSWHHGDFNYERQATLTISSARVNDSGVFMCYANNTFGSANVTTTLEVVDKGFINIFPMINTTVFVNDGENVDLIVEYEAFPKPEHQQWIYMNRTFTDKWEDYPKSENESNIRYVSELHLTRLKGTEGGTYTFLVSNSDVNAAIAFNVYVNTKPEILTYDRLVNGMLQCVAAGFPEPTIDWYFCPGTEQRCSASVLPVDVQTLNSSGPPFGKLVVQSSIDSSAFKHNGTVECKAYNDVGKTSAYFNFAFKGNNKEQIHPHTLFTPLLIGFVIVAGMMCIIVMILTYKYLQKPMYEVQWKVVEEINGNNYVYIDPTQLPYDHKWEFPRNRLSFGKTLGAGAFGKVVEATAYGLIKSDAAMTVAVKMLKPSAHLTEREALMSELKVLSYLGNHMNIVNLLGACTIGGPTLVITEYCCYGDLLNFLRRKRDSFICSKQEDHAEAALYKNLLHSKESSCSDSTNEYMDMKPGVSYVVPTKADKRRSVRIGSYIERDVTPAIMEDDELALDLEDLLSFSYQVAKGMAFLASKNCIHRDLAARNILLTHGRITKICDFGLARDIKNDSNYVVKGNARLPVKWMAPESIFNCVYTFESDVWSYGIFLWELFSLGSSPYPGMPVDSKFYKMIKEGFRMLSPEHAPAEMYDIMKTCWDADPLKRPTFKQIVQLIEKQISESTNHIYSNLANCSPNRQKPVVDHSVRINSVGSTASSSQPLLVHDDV
Briefly: Kinome screen, KIT. To be noted: screened at 1 μM. The series is classed as binding. Here is the method:
as §1, §2

Series [1] concerns BEAS-2B human lung epithelial cells. Put plainly: CellTiter-Glo cell viability/cytotoxicity assay. It counts as cell-based. To be noted: BEAS-2B cells, 48 h, concentration at 15% inhibition threshold. As for the experimental part: A CellTiter-Glo luminescent cell viability/cytotoxicity assay was carried out in BEAS-2B human lung epithelial cells (ATCC) under the normal growth condition.
Cells were grown at 37° C. in a 5% CO2 humidified incubator in 50% DMEM/50% F-12 medium (Life Technologies) supplemented with 10% FBS (Hyclone), 100 U/mL penicillin, 100 μg/mL streptomycin (Life Technologies), and 2 mM GlutaMAX (Life Technologies). On day 1 of the assay, cells were seeded at a 500 cells/well density in white 384-well tissue culture plates (Corning) with 25 μL medium, and were allowed to adhere overnight in the incubator. On day 2 of the assay, 5 μL of medium containing dose-responses of test compounds was added, and incubated at 37° C. for 48 h. 30 μL of CellTiter-Glo detection solution (Promega) was subsequently added, mixed on an orbital shaker for 5 min, and incubated for additional 10 min before being read on the EnVision reader. Luminescence signals were recorded and percent DMSO control values were calculated.
For dose-response analysis, percent DMSO control data were plotted vs. compound concentrations to derive dose-response curves by line connecting each data point. The concentration at which each curve crosses the 15% inhibition threshold is defined as CC15.

For the next series, the target named is T12, CDK2 (Homo sapiens, UniProt P24941).
T12 construct: made in house; host or cells: T7 phage in E. coli (BL21-derived) or HEK-293
Put plainly: Kinome screen, CDK2. The series is classed as binding. Particulars: screened at 1 μM. As for the experimental part: as §1, §2

In the next series the target is T13, SRC (Homo sapiens, UniProt P12931).
T13 construct: made in house; host or cells: T7 phage in E. coli (BL21-derived) or HEK-293
Put plainly: Kinome screen, SRC. Particulars: screened at 1 μM. The series is classed as binding. Here is the method:
as §1, §2

A further series concerns the target T14, VEGFR2 (Homo sapiens, UniProt P35968).
T14 construct: made in house; host or cells: T7 phage in E. coli (BL21-derived) or HEK-293
Put plainly: Kinome screen, VEGFR2. It counts as binding. Particulars: screened at 1 μM. Here is the method:
as §1, §2

A further series addresses T15, CSF1R (Homo sapiens, UniProt P07333).
T15 construct: made in house; host or cells: T7 phage in E. coli (BL21-derived) or HEK-293
Briefly: Kinome screen, CSF1R. Particulars: screened at 1 μM. It counts as binding. Here is the method: as §1, §2

The next series has as its target T16, CDK9 (Homo sapiens, UniProt P50750).
T16 construct: made in house; host or cells: T7 phage in E. coli (BL21-derived) or HEK-293
Briefly: Kinome screen, CDK9. The series is classed as binding. Particulars: screened at 1 μM. As for the experimental part: as §1, §2

The nature of series [2]: Dynamic moisture sorption assessment. Particulars: for weight gain, 5% to 70% relative humidity / weight gain, 5% to 90% relative humidity: room temperature. It counts as physicochemical. As for the experimental part:
Dynamic moisture sorption (DMS) measurement was performed using a VTI atmospheric microbalance, SGA-100 system (VTI Corp., Hialeah, Fla. 33016). A weighed sample was used and the humidity was lowest possible value (close to 0% RH) at the start of the analysis. The DMS analysis consisted of an initial drying step (0% RH) for 120 minutes, followed by two cycles of sorption and desorption with a scan rate of 5% RH/step over the humidity range of 5% RH to 90% RH. The DMS run was performed isothermally at 25° C.

Series [3] can be described thus: Solid state stability assessment of Form 1. The series is classed as physicochemical. As for the experimental part:
Samples of the Form 1 crystalline free form of the invention were stored at 25° C. and 60% relative humidity (RH) and at 40° C. and 75% RH under two configurations a) open glass vial and b) closed glass vial placed inside an HDPE bottle containing desiccant. HDPE bottle was induction sealed. At specific intervals, the contents of a representative sample were removed and analyzed by HPLC for chemical purity (shown below as HPLC Purity (% a/a)).

SMILES strings stand for the structures.

The inhibition is the drop in the measured response relative to a control, in per cent.

T16 sequence (P50750 whole entry): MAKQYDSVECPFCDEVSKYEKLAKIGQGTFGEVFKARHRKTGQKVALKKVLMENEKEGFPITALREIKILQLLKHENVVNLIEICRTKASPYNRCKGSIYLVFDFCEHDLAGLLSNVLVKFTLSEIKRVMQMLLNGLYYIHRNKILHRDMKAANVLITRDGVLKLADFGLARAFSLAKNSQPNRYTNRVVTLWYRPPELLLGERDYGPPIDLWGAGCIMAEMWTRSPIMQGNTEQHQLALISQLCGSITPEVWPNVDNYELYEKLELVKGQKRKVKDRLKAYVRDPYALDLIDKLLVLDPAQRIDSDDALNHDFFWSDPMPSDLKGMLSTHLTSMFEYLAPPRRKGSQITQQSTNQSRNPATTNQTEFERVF
T15 sequence (P07333 20-972): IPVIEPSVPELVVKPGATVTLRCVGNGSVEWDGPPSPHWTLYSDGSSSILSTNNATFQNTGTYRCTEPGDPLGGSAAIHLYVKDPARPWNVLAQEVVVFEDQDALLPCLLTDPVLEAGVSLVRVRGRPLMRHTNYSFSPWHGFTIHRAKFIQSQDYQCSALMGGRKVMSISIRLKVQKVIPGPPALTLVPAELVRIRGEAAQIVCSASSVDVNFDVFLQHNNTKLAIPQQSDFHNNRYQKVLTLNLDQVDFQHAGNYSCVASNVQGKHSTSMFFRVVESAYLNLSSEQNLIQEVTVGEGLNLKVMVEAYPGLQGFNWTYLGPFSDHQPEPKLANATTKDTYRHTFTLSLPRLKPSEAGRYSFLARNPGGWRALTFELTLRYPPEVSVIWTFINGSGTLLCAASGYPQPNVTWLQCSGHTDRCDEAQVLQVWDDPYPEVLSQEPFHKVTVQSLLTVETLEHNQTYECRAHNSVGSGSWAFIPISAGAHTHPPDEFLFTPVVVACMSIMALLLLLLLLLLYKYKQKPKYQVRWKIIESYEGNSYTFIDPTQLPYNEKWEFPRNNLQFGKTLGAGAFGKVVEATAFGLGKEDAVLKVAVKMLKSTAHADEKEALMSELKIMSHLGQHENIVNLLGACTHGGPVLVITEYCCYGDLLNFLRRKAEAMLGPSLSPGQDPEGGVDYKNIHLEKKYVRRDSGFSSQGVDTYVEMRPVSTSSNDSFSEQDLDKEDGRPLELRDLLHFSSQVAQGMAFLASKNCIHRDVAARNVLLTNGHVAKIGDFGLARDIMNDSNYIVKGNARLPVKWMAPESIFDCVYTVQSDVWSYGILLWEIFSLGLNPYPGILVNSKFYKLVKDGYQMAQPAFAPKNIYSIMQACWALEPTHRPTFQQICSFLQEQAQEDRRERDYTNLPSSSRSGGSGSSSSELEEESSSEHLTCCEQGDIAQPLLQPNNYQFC

Turning to `CCc1cc(O)c(F)cc1-c1ccc2c(-c3nc4c([nH]3)CCN(C(=O)CN3CCOCC3)C4)n[nH]c2c1` [C-1, 1-(2-(6-(2-Ethyl-5-fluoro-4-hydroxyphenyl)-1H-indazol-3-yl)-1,4,6,7-tetrahydro-5H-imidazo[4,5-c]pyridin-5-yl)-2-morpholinoethan-1-one, reference compound], the inhibition at 1 µM against PKAC-ALPHA came out at 70%; on AURKA, 57%; on GSK3B, 68%; at ALK, 81%; at PLK4 it was 68%; against SLK it was 100%. Besides, the inhibition at 1 µM on PAK4 was 99%; at SYK, 78%; against EPHB6, 98%; against CDK7, 99%; on KIT, 99%; on CDK2, 53%. The inhibition at 1 µM against SRC is 100%; at VEGFR2, 63%; on CSF1R it was 100%; against CDK9 it was 95%. Moreover, the GINI coefficient in the series with 35 different kinases was determined as 0.46. Besides, the CC15 in series [1] worked out at 0.63 µM.
With `CCc1cc(O)c(F)cc1-c1cc(F)c2c(-c3nc4c([nH]3)CCN(C(=O)CN3CCOCC3)C4)n[nH]c2c1` [Form 1, 1-(2-(6-(2-Ethyl-5-fluoro-4-hydroxyphenyl)-4-fluoro-1H-indazol-3-yl)-1,4,6,7-tetrahydro-5H-imidazo[4,5-c]pyridin-5-yl)-2-morpholinoethan-1-one], in series [2], the “hygroscopicity” value is on record as “slightly-hygroscopic”. In addition, the “weight gain, 5% to 70% relative humidity” value in series [2] is recorded as “about 0.99%”. In addition, in series [2], the “weight gain, 5% to 90% relative humidity” value is on record as “about 1.32%”. Moreover, the “HPLC Purity” value in [3] (2 weeks, 40° C./75% RH Open) stood at 98.72 % a/a; in series [3] (4 weeks, 25° C./60% RH Closed With Desiccant) it was 98.75 % a/a; in [3] (4 weeks, 25° C./60% RH Open) it was 98.75 % a/a; in [3] (4 weeks, 40° C./75% RH Closed With Desiccant), 98.75 % a/a; in series [3] (4 weeks, 40° C./75% RH Open), 98.70 % a/a; in series [3] (8 weeks, 25° C./60% RH Closed With Desiccant) it was 98.87 % a/a. Further, the “HPLC Purity” value in series [3] (8 weeks, 25° C./60% RH Open) came to 98.75 % a/a; in series [3] (8 weeks, 40° C./75% RH Closed With Desiccant) it was 98.80 % a/a; in series [3] (8 weeks, 40° C./75% RH Open), 98.97 % a/a; in series [3] (24 weeks, 25° C./60% RH Closed With Desiccant), 99.02 % a/a; in [3] (24 weeks, 25° C./60% RH Open), 98.78 % a/a; in series [3] (24 weeks, 40° C./75% RH Closed With Desiccant) it was 99.06 % a/a. In addition, the “HPLC Purity” value worked out at 98.89 % a/a in [3] (24 weeks, 40° C./75% RH Open); 98.80 % a/a in series [3] (36 weeks, 25° C./60% RH Closed With Desiccant); 98.75 % a/a in series [3] (36 weeks, 25° C./60% RH Open); 98.86 % a/a in series [3] (36 weeks, 40° C./75% RH Closed With Desiccant); 98.71 % a/a in series [3] (36 weeks, 40° C./75% RH Open); 98.73 % a/a in series [3] (time point 0 weeks). Also, the “changes in chemical purity” value in [3] (after 36 weeks at accelerated conditions of 40° C. and 75% relative humidity) is “no statistically significant changes”.
As for `CCc1cc(O)c(F)cc1-c1cc(F)c2c(-c3nc4c([nH]3)CCN(C(=O)CN3CCOCC3)C4)n[nH]c2c1` [Form 2, 1-(2-(6-(2-Ethyl-5-fluoro-4-hydroxyphenyl)-4-fluoro-1H-indazol-3-yl)-1,4,6,7-tetrahydro-5H-imidazo[4,5-c]pyridin-5-yl)-2-morpholinoethan-1-one], in series [2], the “hygroscopicity” value is on record as “non-hygroscopic”; the “weight gain, 5% to 70% relative humidity” value was “about 0.12%”; the “weight gain, 5% to 90% relative humidity” value was “about 0.18%”.

The values above are taken from US10493077B2, “Fused imidazo-piperidine JAK inhibitor compound” (THERAVANCE BIOPHARMA R&D IP, LLC, priority 2017, dated 2019).
